The numbers were not newly measured in patent US20230263806A1, “METHODS OF TREATING PROTEINOPATHIES” (Woolsey Pharmaceuticals, Inc., priority 2020, published 2023), which cites them from elsewhere.

Counter-ions that a name gives are not always drawn.

Series [1] deals with p38 mitogen-activated protein kinase (Homo sapiens, UniProt Q16539).
The test system of series [2] is triple transgenic mouse model (APP Swedish, MAPT P301L, and PSEN1 M146V). The settings on record: 10 mg/kg/day intraperitoneally (57 mg HED).
Series [3] concerns triple transgenic Mice. The note with it: 10 or 12 months of age; administered in water at 30 mg/kg and 100 mg/kg.
For series [4] the following is noted: 1-hydroxy (M3) metabolite, in vivo.

p38 mitogen-activated protein kinase, sequence (Q16539 2-360 limits assumed): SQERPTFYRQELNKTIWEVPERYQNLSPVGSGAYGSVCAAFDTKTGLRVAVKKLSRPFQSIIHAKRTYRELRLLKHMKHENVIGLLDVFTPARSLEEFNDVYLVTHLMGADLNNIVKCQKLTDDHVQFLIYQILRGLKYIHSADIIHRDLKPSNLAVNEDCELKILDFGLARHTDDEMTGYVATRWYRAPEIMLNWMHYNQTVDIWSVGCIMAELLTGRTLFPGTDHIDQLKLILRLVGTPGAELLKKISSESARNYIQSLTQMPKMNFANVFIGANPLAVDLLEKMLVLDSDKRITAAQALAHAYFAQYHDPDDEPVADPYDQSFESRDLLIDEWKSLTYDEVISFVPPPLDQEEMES

For `O=c1ncn2nc(Sc3ccc(F)cc3F)ccc2c1-c1c(Cl)cccc1Cl` [Neflamapimod], in series [1] (Phase 2), the “primary endpoint of improving episodic memory” value is listed as “failed” and the “tau in the cerebrospinal fluid” value is “reducing tau”. In series [1] (humans), the Aβ deposition result is recorded as “no effect”.
Take `O=S(=O)(c1cccc2cnccc12)N1CCCNCC1` [fasudil, Hexahydro-1-(5-isoquinolinesulfonyl)-1H-1,4-diazepine Monohydrochloride Hemihydrate]: the “amyloid plaques in vivo” value in series [2] is “reduce 1 amyloid plaques”. Also, the spatial memory result in series [3] was “did not observe improvements in spatial memory”.
On to `O=S(=O)(c1cccc2c(O)nccc12)N1CCCNCC1` [M3], for which, in series [4], the half-life entry is “about 8 hours”.
